Results published in US20080279907A1, “Antimicrobial medical devices and methods for making and using same” (Ash Access Technology, Inc., priority 2007, published 2008).
Where “and” joins values, the source holds several entries; their conditions need not be identical. Equal entries are not always repeated.

Legend:
Assay type in all cases: physicochemical
[1] = Leaching of methylene blue from treated catheter into normal saline replaced monthly; settings: catheter treated with only methylene blue
Description: When the saline is replaced with fresh saline, exactly the same intense blue color developed in the fresh saline solution during the second month. This process of replacing the saline solution can be continued, that is, replacing the saline solution with fresh solution monthly, for at least nine months. The color resulting during the sixth month in the fresh saline solution is a light blue. If the process is continued for an additional 3 months or up to a total of 9 months, the resulting fresh saline solution is light blue in color, but the release of the dye continues.

[2] = Total methylene blue loaded onto and released from polycarbonate discs and catheters, desorbed in MeOH (0.1% TFA), UV 662 nm
Description: An experiment was performed in order to determine the total amount of methylene blue that was loaded onto a polycarbonate disc in comparison to a polycarbonate catheter. The discs were 1.27 cm or 0.5 inches in diameter and included a surface area of 2.53 cm^2 and a thickness of 0.60 mm. The catheter pieces were 1″ long and included a surface area of 4.64 cm^2 and a thickness of 0.51 mm. A 160 ml solution of 0.24 M sodium citrate was prepared into which 0.1% or […] of methylene blue was added. Then, 2%, or 3.2 g of ascorbic acid, was added to the solution and mixed for 1-2 minutes and 10 ml of the solution was placed into 25 ml flasks. The discs and catheter pieces were rinsed and placed into the 25 ml flasks of solution and placed on a shaker at 220 rpm at 37° C. for three hours. The catheter pieces and discs were removed, rinsed with distilled water, and dried. The catheter pieces and discs were desorbed in 20 ml of MeOH (w/0.1% TFA) and placed on the shaker until the membranes appeared whitish in color. Appropriate dilutions were made and the UV absorbance was measured at 662 nm. The methylene blue concentration was calculated based on a standard curve generated in a similar manner. The results are set forth below in Table 4 and 5.

[3] = Perfusion of parabens and methylene blue through polycarbonate membrane in perfusion chamber (HPLC of lower chamber); settings: for perfusion of methylene blue through membrane without activation: only 1,2-propanediol solution, absence of Citrate and activation by AA, after 4.5 days (Treatments 1 and 2)
Description: An experiment was performed to determine a method for perfusing methylene blue, methyl paraben, and propyl paraben through a polycarbonate membrane with causing only minimal changes to the strength and elasticity of the membrane. In FIG. 12, there is illustrated a perfusion chamber system 50 used during the experiment. System 50 includes an upper chamber 51 and a lower chamber 52 separated by a polycarbonate membrane 53 having a thickness of 0.60 mm. The upper and lower chambers 51, 52 are generally structured to hold 10.5 cm^3 or 10.5 ml of fluid. The upper chamber 51 was connected to a peristaltic pump (not shown) and the lower chamber 52 was filled with distilled water. First and second solutions, respectively including the parabens and the methylene blue, were prepared in accordance with the method set forth in EXAMPLE 6 above. As best seen in Tables 6 and 7 below, the solutions were connected to the pump and passed through the first chamber 51 at a constant rate at 37° C. over various lengths of time.
Table 6 includes data obtained from HPLC analysis comparing the methyl paraben, propyl paraben, and methylene blue concentrations in the lower chamber 52. The parameters for the methyl and propyl paraben and methylene blue treatments are indicated in the left hand columns.

[4] = Desorption of methylene blue from impregnated catheter pieces in 0.9% saline (HPLC)
Description: In another form of the present application, one inch polycarbonate catheter pieces including a surface area of about 4.64 cm^2 were impregnated with methylene blue. A solution of 0.24 M sodium citrate buffer pH 4.5 was prepared with 100 mg % methylene blue activated by 2% L-ascorbic acid immediately beforehand. Catheter pieces were placed in flasks containing the solution and the flasks were placed on a shaker at 220 rpm and 27° C. for 3 hours.
Desorption analysis of the methylene blue impregnated catheter pieces was performed in a 0.9% solution of saline. The total amount of methylene blue released from the catheter pieces was calculated using HPLC analysis performed with a Waters Alliance 2690 including a 996 Photodiode Array Detector according to conditions in Example 4. The results of the HPLC analysis corresponding to the desorption of methylene blue from the methylene blue impregnated polymeric material are set forth in the graph of FIG. 10.
One inch polycarbonate catheter pieces including a surface area of about 4.64 cm^2 were impregnated with methyl paraben and propyl paraben. A solution of 100% 1,2-propanediol was prepared with 9% methyl paraben and 2% propyl paraben. Pairs of the one inch catheter pieces were placed into three 25 ml flasks including 10 ml of parabens solution. The flasks were placed on a shaker at 220 rpm and 27° C. for two, four, or nine hours. At the end of each time period, the catheter pieces were removed, rinsed with distilled water, and dried.
The catheter pieces were then impregnated with methylene blue. A solution of 0.24 M sodium citrate buffer with a pH of 4.5 was prepared with 100 mg % methylene blue activated by 2% L-ascorbic acid immediately beforehand. Catheter pieces were placed in flasks containing the solution and the flasks were placed on a shaker at 220 rpm and 27° C. for 3 hours. Desorption analysis of the parabens and methylene blue impregnated catheter pieces was performed in a 0.9% solution of saline according to the method described earlier.

[5] = No Parabens, MB treatment 3 hrs 0.24 M Citrate buffer, 4.5 pH
[6] = paraben treatment 2 hrs- 100% PG, 9% MP, 2% PP, MB treatment 3 hrs
[7] = paraben treatment 4 hrs- 100% PG, 9% MP, 2% PP, MB treatment 3 hrs
[8] = paraben treatment 9 hrs- 100% PG, 9% MP, 2% PP, MB treatment 3 hrs
[9] = flat polycarbonate disc (discs 1-4), NO Parabens, MB treatment 3 hrs 0.24M Citrate Buffer, 4.5 pH, 100 mg % MB, 2% AA

## CN(C)c1ccc2nc3ccc(=[N+](C)C)cc-3sc2c1 [MB, methylene blue]
[1]
  duration of release of the dye from treated catheter: ≥ 9 months
[2]; Tables 4 and 5, no parabens
  factor by which flat discs exceed catheters in total sorption and desorption of methylene blue per cm^2: ~6.8
[2]; average of flat discs 1-4, NO Parabens, MB treatment 3 hrs
  Average ug/cm^2 MB released: 1942.8 ug/cm^2
[2]; [5]
  % MB released from catheter in saline desorption/total released in MeOH (0.1% TFA): 58.8%
  mg released based on 1″ of catheter: 1.32 mg
  mg released per cm^2 of catheter: 0.284 mg per cm^2
  ug released per cm^2 of catheter: 284.5 ug per cm^2
[2]; [6]
  % MB released from catheter in saline desorption/total released in MeOH (0.1% TFA): 73.2%
  mg released based on 1″ of catheter: 1.65 mg
  mg released per cm^2 of catheter: 0.356 mg per cm^2
  ug released per cm^2 of catheter: 356.3 ug per cm^2
[2]; [7]
  % MB released from catheter in saline desorption/total released in MeOH (0.1% TFA): 65.5%
  mg released based on 1″ of catheter: 1.71 mg
  mg released per cm^2 of catheter: 0.368 mg per cm^2
  ug released per cm^2 of catheter: 368.5 ug per cm^2
[2]; [8]
  % MB released from catheter in saline desorption/total released in MeOH (0.1% TFA): 76.4%
  mg released based on 1″ of catheter: 1.78 mg
  mg released per cm^2 of catheter: 0.384 mg per cm^2
  ug released per cm^2 of catheter: 383.6 ug per cm^2
[2]; [9]
  Amt MB (mg) released per square cm (mg/2.53 cm^2) on disc: 1.95 mg per square cm and 1.92 mg per square cm and 1.93 mg per square cm and 1.96 mg per square cm
  Average amount (mg) released per disc: 4.94 mg and 4.87 mg and 4.88 mg and 4.97 mg
  ug/cm^2 MB released, flat disc: 1954.1 ug/cm^2 and 1923.6 ug/cm^2 and 1929.0 ug/cm^2 and 1964.3 ug/cm^2
[3]; activated MB solution (citrate, AA), 0.60 mm polycarbonate membrane
  time to perfuse through the membrane: ~10 days
[3]; after 10 days of flow by activated solution
  concentration of methylene blue in lower chamber, in words: not significant
[3]; lower chamber, parabens ~9 hrs at 37 C., then activated MB sol'n ~10 days
  Total mg MB in 10.5 mL lower chamber: 0.0105 mg
[3]; lower chamber, parabens ~9 hrs at 37 C., then activated MB sol'n ~10 days, changed every 1 day
  MB conc: 0.001 mg/mL
[3]; listed as Methylene blue
  perfusion of methylene blue through membrane without activation: would not perfuse
[3]; listed as methylene blue
  perfusion of methylene blue through membrane without activation: minimal
[4]; catheters preincubated with parabens, 0.9% saline
  period of significant release of methylene blue: 10 days
[4]; catheters pretreated with parabens, 0.9% saline (FIG. 11)
  methylene blue release at the conclusion of the 81st day: a small amount of methylene blue still being released
[4]; catheters treated only with methylene blue, 0.9% saline (FIG. 10)
  methylene blue release during the last 20 days of the experiment: negligible release
